Like-named read-outs stand apart in the source and are kept apart here.
Assays:
RJ002L melanoma cells = assay: Dosing study versus chemotherapeutic agents, killing of RJ002L melanoma cells; type: cell-based, human
Experimental: (§1) An initial dosing study comparing z-Leu-Leu-Nle-CHO against three different chemotherapeutic agents (i.e., adriamycin, etoposide, and cisplatin) was performed to evaluate the relative effectiveness of z-Leu-Leu-Nle-CHO in killing melanoma cells. In agreement with a previous report by Soengas, M. S. et al., 2001, Nature 409.207-211, SK-MeI-28 cells, carrying a mutated p53, were relatively resistant to killing by adriamycin, as well as to killing by other chemotherapeutic agents. For SK-MeI-28 melanoma cells, the maximal apoptotic response for adriamycin, etoposide, cisplatin, and z-Leu-Leu-Nle-CHO was 12.0%, 2.6%, 4.0%, and 29.4%, respectively. For RJ002L melanoma cells, the maximal apoptotic response for adriamycin, etoposide, cisplatin, and z-Leu-Leu-Nle-CHO was 23.9%, 12.7%, 3.4%, and 45.7%, respectively.

NOXA = assay: Western blot of pro-survival and pro-apoptotic proteins in melanoma cells; type: cell-based, human; details: several melanoma cell lines, similar time points; data not shown
Experimental: To assess the effect of z-Leu-Leu-Nle-CHO on pro-apoptotic proteins, RJ002L pulmonary metastases melanoma cells were grown in RPMI supplemented with 10% FBS. Highly proliferating cells (i.e., cells that had reached approximately 30% confluency) were exposed to z-Leu-Leu-Nle-CHO by replenishing the culture media with media containing z-Leu-Leu-Nle-CHO (10 μM) (experimental group) or media without z-Leu-Leu-Nle-CHO (control group) and the cells were incubated for a specified period of time prior to harvesting the cells for further analysis.
Western blot analyses following z-Leu-Leu-Nle-CHO and control treatment of RJ002L melanoma cells were performed to determine the effect of z-Leu-Leu-Nle-CHO on pro-survival and pro-apoptotic proteins. Whole cell extracts were prepared and analyzed as described by Denning, M. F. et al., 1998, J Biol Chem 273: 29995-30002, 1998. The enriched mitochondria pellet and mitochondria-free cytosol of melanoma cells were prepared with the APO ALERT cell fraction kit (Clontech Laboratories, Inc. Palo Alto, Calif.) according to the manufacturer's instructions. For Western blot analysis, equal amounts of protein extracted from each sample (20-30 μg) were loaded into pre-cast 7% NuPAGE Tris-acetate gels or 4-12% NuPAGE Bis-tris gels (Invitrogen). Proteins were separated by SDS-PAGE and transferred to polyvinylidene difluoride membranes (Bio-Rad, Hercules, Calif.) using Invitrogen's buffering system. The indicated primary antibodies were incubated for indicated period of time, washed, and visualized by incubation with horseradish peroxidase-conjugated secondary antibodies and chemiluminescent reagents (Roche Diagnostics Corporation, Indianapolis, Ind.). Antibodies used were as follows: From Santa Cruz Biotechnology: Bcl-2 (SC-7382), BCl-xL (SC-634), Mcl-1 (SC-819), survivin (SC-10811), Bax (SC-493), Bak (SC-832), Bim (SC-11425), PUMA (SC-19187), p53 (SC-126), and GADD45 (SC-796); From Cell Signaling: Bid (#2002), and cleaved caspase 9 (9501); NOXA (OP180—Oncogene Research Products), Apaf-1 (559683-BD Bioscience), Smac/Diablo (IMG-248-Imgenex), cytochrome C (part of kit—Apo Alert™ cell fraction kit—Clontech Laboratories, Inc.—Palo Alto, Calif.), PARP (Pharmingen, San Diego, Calif.) and β-actin (Sigma Chemical Co., St. Louis, Mo.). Secondary antibodies anti-goat, anti-mouse, anti-rabbit and anti-rat (IgG-HRP) were purchased from Vector Laboratories (Burlingame, Calif.), Santa Cruz Biotechnology and Amersham Biosciences.
To determine if p53 status influences induction of NOXA, NOXA induction in z-Leu-Leu-Nle-CHO-treated melanoma cell lines (10 μM) containing p53 mutations (i.e. C8161, SK-MeI-28, MUM2B) were examined using Western blot analysis as described above and compared to that of Western blot results from z-Leu-Leu-Nle-CHO-treated melanoma cell lines (10 μM) having wild-type p53 (RJ002L, SK-MeI-100). […] In contrast, C8161, which carries a R196Stop mutation in only one allele, has p53 expression similar to that observed in wild-type cell lines. […] NOXA induction occurred earlier in SK-MeI-100 cells than in the other tested cell lines (FIG. 2C). Apaf-1 levels were not increased in response to z-Leu-Leu-Nle-CHO (data not shown).

SK-MeI-28 melanoma cells = assay: Dosing study versus chemotherapeutic agents, killing of SK-MeI-28 melanoma cells; type: cell-based, human; details: SK-MeI-28, mutated p53
Experimental: as §1

[1] = test system: CaSki human cervical cancer cells; assay: Cell growth inhibition assay in CaSki cervical cancer cells (crystal violet); type: cell-based; details: 48 hrs, read-out: IC50 of cisplatin
Experimental: The cell growth inhibition assay was performed in a 96-well plate format. Inhibition was assessed by monitoring the protein content in each well using the crystal violet staining method as described by Skehan et al., 1990, J Natl Cancer Inst 82:1107-1112 and Prochaska et al., 1988, Anal Biochem 169:328-336. Briefly, cells were plated at a density of 2×10^4 cells/ml in 200 μl of DMEM supplemented with 10% FBS. The cells were transfected with siRNAs ([…] siRNA oligos/well) using Oligofectamine Transfection Reagents (InVitrogen) according to manufacturer's instructions. Twenty-four hours post-transfection, the media was decanted, 190 μl of fresh media was added to each well, and 10 μl of cisplatin (4 mM) dissolved in 10% DMSO was added to the wells as a series 2-fold dilutions (final concentration of cisplatin in the wells ranged from 0.5-200 μM). The cells were incubated with cisplatin for 48 hrs, the media was decanted, and the cells were submerged with 200 μl of 0.2% crystal violet in 2% ethanol for 10 min. The plates were rinsed for 2 min with tap water. The bound dye was solublized by incubation at 37° C. for 1 h with 200 μl of 0.5% sodium dedecyl sulfate in 50% ethanol. The plates were then scanned with an ELISA reader at 562 nm. The percentage cell growth inhibition mediated by cisplatin was calculated as: % inhibition=[1-(OD of cisplatin-treated cells/OD DMSO-treated control cells)]×100/100.
CaSki human cervical cancer cells treated for 48 hrs with z-Leu-Leu-Nle-CHO alone were tested for cell growth inhibition. The cell growth inhibition assay was performed in a 96-well plate format. Inhibition was assessed by monitoring the protein content in each well using the crystal violet staining method Skehan, P. et al., 1990, J Natl Cancer Inst 82:1107-1112. Briefly, cells were plated at a density of 2×10^4 cells/ml in 200 μl of DMEM supplemented with 10% FBS. After pre-incubation period of 24 h, the media was decanted, 190 μl of fresh media was added to each well, and 10 μl (150 μM) of z-Leu-Leu-Nle-CHO dissolved in 10% DMSO was added to the wells as a series 2-fold dilutions (final concentration of cisplatin in the wells ranged from 0.05-7.5 μM). The cells were incubated with z-Leu-Leu-Nle-CHO for 48 hrs, the media was decanted, and the cells were submerged with 200 μl of 0.2% crystal violet in 2% ethanol for 10 min. The plates were rinsed for 2 min with tap water. The bound dye was solublized by incubation at 37° C. for 1 h with 200 μl of 0.5% sodium dedecyl sulfate in 50% ethanol. The plates were then scanned with an ELISA reader at 562 nm. The percentage cell growth inhibition mediated by test agents was calculated as: % inhibition=[1-(OD of z-Leu-Leu-Nle-CHO-treated cells/OD DMSO-treated control cells)]×100/100.
To determine whether z-Leu-Leu-Nle-CHO treatment potentiates the effect of cisplatin on human […] cancer cells, the CaSki cells were treated for 48 h with 0.1-0.8 μM z-Leu-Leu-Nle-CHO and various concentrations of cisplatin (2-fold dilutions of a cisplatin solution to produce final concentrations of 1.6-200 μM cisplatin). Following the z-Leu-Leu-Nle-CHO and cisplatin treatment, the cells were tested for growth inhibition as described above.
Isobologram analysis was performed by measuring the IC50 values of cisplatin in the presence of various concentrations of z-Leu-Leu-Nle-CHO. These IC50 values were plotted with SigmaPlot, and a straight line was traced between the IC50 values of cells treated with either cisplatin or z-Leu-Leu-Nle-CHO alone.

| SMILES | maximal apoptotic response (RJ002L melanoma cells) [%] | NOXA induction by DNA damaging agents (NOXA) | maximal apoptotic response (SK-MeI-28 melanoma cells) [%] | IC50 ([1]; in combination with Notch-1 siRNA) [µM] | IC50 ([1]; without Notch-1 siRNA) [µM] |
| --- | --- | --- | --- | --- | --- |
| COc1cc([C@@H]2c3cc4c(cc3[C@@H](O[C@@H]3O[C@@H]5CO[C@@H](C)O[C@H]5[C@H](O)[C@H]3O)[C@H]3COC(=O)[C@H]23)OCO4)cc(OC)c1O [etoposide] | 12.7 | did not induce NOXA | 2.6 | – | – |
| COc1cccc2c1C(=O)c1c(O)c3c(c(O)c1C2=O)C[C@@](O)(C(=O)CO)C[C@@H]3O[C@H]1C[C@H](N)[C@H](O)[C@H](C)O1 [adriamycin] | 23.9 | did not induce NOXA | 12.0 | – | – |
| N.N.[Cl][Pt][Cl] [cisplatin] | 3.4 | did not induce NOXA | 4.0 | 0.46 | 27.3 |

Reference: US20080220416A1, “Compositions for Inhibiting Cell Growth and Inducing Apoptosis in Cancer Cells and Methods of Use Thereof” (THE BOARD OF TRUSTEES OF THE UNIVERSITY OF ILLINOI, priority 2004, published 2008)
